Source: US20070117180A1, “Enzyme producing plasma protein fragment having inhibitory activity to metastasis and growth of cancer and plasma protein fragment produced by fragmentation by said enzyme” (priority 1998, published 2007)

Assays:
Lewis lung cancer cells = assay: Inhibitory activity of PACE4 to growth of metastasized cancerous focus in immunodeficient mice (lung weight, FIG. 9); format: in vivo, immunodeficient (Scid) mice
Description: As a system for estimating inhibitory effects to growth of metastasized cancerous focus of PACE4 per se, immunodeficient (Scid) mice were employed. Lung cancer cells (3LL; provided from Cell Resource Center for Biomedical Research, Institute of Development, Aging and Cancer, Tohoku University) were subcutaneously transplanted to Scid mice at the back. The animals were bred until a primary cancerous focus grows up to a predetermined size. So that severity of disease conditions is taken into consideration, mice were divided into two groups based on the size of a primary cancerous focus; one with a primary cancerous focus weighing not more than 1200 mg and the other with a primary cancerous focus weighing more than 1200 mg. The primary cancerous focus in each group was removed surgically. Each group was then further divided into three groups: a group receiving a high or low concentration of PACE4, and a control group. The sample was administered to mice intraperitoneally at 40 μg/mouse/day or 8 μg/mouse/day for 10 days. As a control, the same amount of physiological saline, as used for dissolving the lyophilized sample, was administered to mice.
After completion of test, mice were dissected and the lung was weighed and compared with the control group (Mann Whetney U test).
To immunodeficient mice of 6 weeks old were transplanted subcutaneously 10^6 Lewis lung cancer cells (LL/2) at the back. The animals were bred for 14 to 17 days and cancer (primary cancerous focus) formed at the back was surgically removed. Based on size of the primary cancerous focus formed, the animals were divided into two groups: one with the primary cancerous focus of not more than 1200 mg (200 mg to 1200 mg) and the other of more than 1200 mg (1201 mg to 2500 mg). Each of these two groups was further divided into three groups: ones that received a high or low dose of the enzyme of the present invention (PACE4) and control. […]

plasminogen = assay: Fragmentation of plasminogen by purified PACE4 at pH 7.0 or pH 4.0 (FIG. 6); format: biochemical, human; details: reacted at neutral and acidic ranges of pH
Description: FIG. 6 depicts fragmentation patterns of plasminogen when reacted at neutral and acidic ranges of pH. […] In FIG. 6, the arrow A (→A) indicates a band corresponding to angiostatin from PC-3 according to Gately et al. whereas the arrow B (→B) indicates a band corresponding to a fragment comprising Kringles 1 to 4 produced by PACE4. […] The N-terminal amino acid residue of each fragment was analyzed to be F-74 for A, P-452 for B and A-700 for C, respectively.

plasmin = assay: Remaining plasmin activity after cleavage by PACE4 (FIG. 8); format: biochemical; details: with passage of time of cleavage by PACE4
Description: Moreover, the enzyme of the present invention, producing angiostatin that comprises Kringles 1 to 4, also cleaves plasmin in the vicinity of its active center (between the 699th Phe and 700th Ala) to let plasmin be inactivated. This cleaving property of the enzyme is quite significant in view of efficient protection against cancer development. This is because angiostatin that inhibits growth of cancer is produced by fragmentation of plasminogen while the simultaneously produced active center of plasmin (plasmin serine protease domain) possibly further promotes cancer development. In addition, it is possible that vascularization and cancer invasion accelerated by the plasmin activity is further accelerated by removal of the Kringle domains. This is because such removal of the Kringle domains would attenuate the inhibitory activity of plasmin-inhibitory proteins occurring within the living body, including alpha 2 plasmin inhibitor (hereinafter referred to as “α2-PI”). Plasmin present in plasma is immediately inactivated by α2-PI circulating in the blood stream wherein the Kringle domains serve as a binding site between plasmin and α2-PI. Deprivation of the domains much reduces the activity of […]. […]

[1] = tested on: bovine aorta endothelial (BAE) cells; assay: Test for inhibitory activity to growth of vascular endothelial cells, bovine aorta endothelial cells; format: cell-based; design: dose or concentration left out as unconfirmed; details: cell count after 72 hours; plasminogen fragments
Description: The activity of the plasminogen fragments was also estimated as described by O'Reilly et al. using bovine aorta endothelial (BAE) cells purchased from Sanko Jun-yaku K.K. BAE cells were cultured for maintenance on a 24-well plate (manufactured by Iwaki Glass K.K.) coated with gelatin in a DMEM basal medium containing 10% fetal calf serum (FCS), 3 ng/ml basic FGF (bFGF), 1% glutamine, 1% penicillin and 1% streptomycin at 5% CO2. BAE cells were plated on a 24-well gelatin-coated plate at 12,500 cells/well and cultured on the basal medium deprived of bFGF for 24 hours. […] contained 5% FCS but was deprived of bFGF and the plasminogen fragments were reacted with the cells at 37° C. for 20 minutes. A physiological saline was used as a negative control whereas angiostatin (Angiostatin, manufactured by Technoclone) was used as a positive control. After reaction, the basal medium containing 5% FCS and 2 ng/ml bFGF was added and the cells were cultured at 37° C. for additional 72 hours. The cells were peeled off the well with trypsin/EDTA solution and counted with Coulter counter (manufactured by Coulter).

[2] = tested on: vascular endothelial cells; assay: Inhibitory activity to growth of the vascular endothelial cells of plasma protein fragments produced by PACE4; format: cell-based; details: as described in Example 13
Description: (§1) The present inventors focused on fibronectin, a plasma component that is produced in great deal under cancerous conditions and is deeply involved in cell adhesion, and cleaved this with the enzyme of the present invention. […] The degraded products produced by the enzyme from fibronectin were separated with heparin Sepharose (Pharmacia). […] The obtained degraded products were estimated for their inhibitory activity to vascularization in the vascular endothelial cell system as described above.
Moreover, the present inventors also cleaved several kinds of fractions obtained from alcoholic fractionation of plasma proteins with the enzyme of the present invention. Alcohol was removed from alcoholic fractions by dialysis, followed by dialysis with citric phosphate buffer (pH 4.0). The resulting fractions were mixed with the enzyme at a ratio of the protein to the enzyme, 100:1, and the mixture was reacted at 38° C. overnight. […]
A test for inhibitory activity to growth of vascular endothelial cells was performed as described by Gately et al. using Human Umbilical vein endothelial (HUV) cells (HUVEC; Sanko Jun-yaku K.K.). […] The cells were peeled off the well with trypsin/EDTA solution and counted with Coulter counter (manufactured by Coulter). […]

[3] = tested on: BCE (Bovine capillary endothelial); assay: Inhibition of BCE vascular growth by fibronectin degraded products; format: cell-based
Description: as §1

PACE4: about 45 kDa aspartic enzyme purified from PC-3 culture supernatant, N-terminus LVRIPLHKFT, high homology to human cathepsin D precursor
inhibitory activity to growth of metastasized cancerous focus (lung weight) (Lewis lung cancer cells; primary cancerous focus more than 1200 mg (B), 40 or 8 μg/mouse/day i.p. for 10 days, 3LL cells): exhibited inhibitory activity to growth of metastasized cancerous focus in a concentration dependent manner
inhibitory activity to increase in lung weight (Lewis lung cancer cells; primary cancerous focus more than 1200 mg, 10 or 2 μg/animal i.p. for 10 days, LL/2 cells): observed in a dose dependent manner
lung weight, PACE4 administration versus control (Lewis lung cancer cells; primary cancerous focus not more than 1200 mg, 10 or 2 μg/animal i.p. for 10 days, LL/2 cells): no significant difference
pH range at which plasminogen is fragmented (plasminogen): only at an acidic range of pH
remaining plasmin activity (plasmin): plasmin activity disappears

angiostatin [reference compound]
inhibitory activity to growth of the vascular endothelial cells [1]: exhibited the inhibitory activity

fibronectin
growth of the vascular endothelial cells (FIG. 15) [2]: no such inhibitory activity
inhibitory ability to BCE vascular growth [3]: not found
